Measurements from patent US20200222531A1, “METHODS OF POPULATING PRECIPITATED PARTICLES OF A MODIFIED OR SYNTHESIZED SUBSTANCE IN A TISSUE” (priority 2010, published 2020).

Assay: Solubility of urushiol in 95% ethanol and in water
Assay type: physicochemical
Excerpt: The poison ivy allergen, urushiol, is soluble in 95% ethanol but insoluble in water. Intramuscular injection of urushiol in small volumes of 95% ethanol results in precipitation of large numbers of small insoluble particles as the ethanol is rapidly diluted by interstitial or tissue fluid, resulting in a […] enhancement of tolerogenesis per mg administered urushiol. As the most practical way to make an Ara h2 vaccine with the solubility properties needed to exploit the benefit of this delivery system may be a derivative of a process already known to enhance tolerogenesis, the inventors have the opportunity to see if the synergistic application of two methods of tolerogenesis enhancement yields a sufficiently high ratio of tolerogenicity to allergenicity to constitute a predictably safe and effective treatment for peanut allergy.

For urushiol, the “solubility in 95% ethanol” value (95% ethanol) was “soluble” and the solubility in water (water) was “insoluble”.
